According to patent publication US20090093454A1, “Chemical Compounds” (priority 2005, published 2009):

Tested on: HIV-1
Assay: HIV infectivity assay (Table 2, strain not given)
Format: cell-based
Settings: Human immunodeficiency virus 1, read-out: Activity Level
Procedure: (§1) Compounds were profiled against two HIV-1 viruses, the M-tropic (CCR5 utilizing) Ba-L strain and the T-tropic (CXCR4 utilizing) IIIB strain. Both viruses were propagated in human peripheral blood lymphocytes. Compounds were tested for there ability to block infection of the HOS cell line (expressing hCXCR4/hCCR5/hCD4/pHIV-LTR-luciferase) by either HIV-1 Ba-L or HIV-1, IIIB. Compound cytotoxicity was also examined in the absence of virus addition.
(§2) HOS cells (expressing hCXCR4/hCCR5/hCD4/pHIV-LTR-luciferase) were harvested and diluted in Dulbeccos modified Eagles media supplemented with 2% FCS and non-essential amino acid to a concentration of 60,000 cells/ml. The cells were plated into 96-well plates (100 ul per well) and the plates were placed in a tissue culture incubator (37° C.; 5% CO2/95% air) for a period of 24 h.
Subsequently, 50 ul of the desired drug solution (4 times the final concentration) was added to each well and the plates were returned to the tissue culture incubator (37° C.; 5% CO2/95% air) for 1 h. Following this incubation 50 ul of diluted virus was added to each well (approximately 2 million RLU per well of virus). The plates were returned to the tissue culture incubator (37° C.; 5% CO2/95% air) and were incubated for a further 96 h.
Following this incubation the endpoint for the virally infected cultures was quantified following addition of Steady-Glo Luciferase assay system reagent (Promega, Madison, Wis.). Cell viability or non-infected cultures was measured using a CellTiter-Glo luminescent cell viability assay system (Promega, Madison, Wis.). All luminescent readouts are performed on a Topcount luminescence detector (Packard, Meridien, Conn.).
as §1, with “Ba-L was” for “Both viruses were”, “either peripheral blood lymphocytes or SupT1/CCR5+/CXCR4+ cells. IIIB was propagated in” for “human”, “their” for “there”
as §2, with “FCS” for “FCS and non-essential amino acid”, “120,000” for “60,000”, “(50 μl” for “(100 ul”, “(370°” for “(37°”
Subsequently, 50 μl of the desired drug solution (2 times the final concentration) was added to each well and the plates were returned to the tissue culture incubator (370° C.; 5% CO2/95% air) for 1 h. Following this incubation, 60 μl of diluted virus (4 times the final concentration) was added to 60 μl of 2× the final desired concentration of the compound and 100 μl of this compound/virus mix was added to each well (approximately 2 million RLU per well of virus). The plates were returned to the tissue culture incubator (370° C.; 5% CO2/95% air) and were incubated for a further 96 h.

c1ccc(N2CCN(c3cccc4nc(CN5CCC[C@H]6CCc7cccnc7[C@H]65)cn34)CC2)nc1 [Example 80, (4aR,10bS)-1-({5-[4-(2-pyridinyl)-1-piperazinyl]imidazo[1,2-a]pyridin-2-yl}methyl)-1,2,3,4,4a,5,6,10b-octahydro-1,10-phenanthroline]
IC50: 100 to 500 nM

CN1CCN(c2cccc3nc(CN4CCC[C@H]5CCc6cccnc6[C@H]54)[nH]c23)CC1 [Example 48, (4aR,10bS)-1-{[4-(4-methyl-1-piperazinyl)-1H-benzimidazol-2-yl]methyl}-1,2,3,4,4a,5,6,10b-octahydro-1,10-phenanthroline]
IC50: < 100 nM

N[C@@H]1CCN(c2cccc3nc(CN4CCC[C@H]5CCc6cccnc6[C@H]54)cn23)C1 [Example 110, (3R)-1-{2-[(4aR,10bS)-3,4,4a,5,6,10b-hexahydro-1,10-phenanthrolin-1(2H)-ylmethyl]imidazo[1,2-a]pyridin-5-yl}-3-pyrrolidinamine]
IC50: < 100 nM

c1cnc2c(c1)CC[C@@H]1CCCN(Cc3cn4c(N5CCN6CCC[C@H]6C5)cccc4n3)[C@H]21 [Example 106, (4aR,10bS)-1-({5-[(8aS)-hexahydropyrrolo[1,2-a]pyrazin-2(1H)-yl]imidazo[1,2-a]pyridin-2-yl}methyl)-1,2,3,4,4a,5,6,10b-octahydro-1,10-phenanthroline]
IC50: < 100 nM

NCCCCCn1c(CN2CCC[C@H]3CCc4cccnc4[C@H]32)nc2ccccc21 (racemic) [Example 39, (cis) 5-[2-(3,4,4a,5,6,10b-hexahydro-1,10-phenanthrolin-1(2H)-ylmethyl)-1H-benzimidazol-1-yl]-1-pentanamine]
IC50: 100 to 500 nM

CN(C)C1CCN(c2cccc3nc(CN4CCC[C@H]5CCc6cccnc6[C@H]54)cn23)C1 (stereo partly drawn) [Example 83, 1-{2-[(4aR,10bS)-3,4,4a,5,6,10b-hexahydro-1,10-phenanthrolin-1(2H)-ylmethyl]imidazo[1,2-a]pyridin-5-yl}-N,N-dimethyl-3-pyrrolidinamine]
IC50: < 100 nM

CN1CCC(N(C)c2cccc3nc(CN4CCC[C@H]5CCc6cccnc6[C@H]54)cn23)CC1 [Example 74, 2-[(4aR,10bS)-3,4,4a,5,6,10b-hexahydro-1,10-phenanthrolin-1(2H)-ylmethyl]-N-methyl-N-(1-methyl-4-piperidinyl)imidazo[1,2-a]pyridin-5-amine]
IC50: < 100 nM

CN1CCN(c2cccc3nc(CN4CCC[C@H]5CCCc6cccnc6[C@H]54)cn23)CC1 [Example 124, (4aR,11bS)-1-{[5-(4-methyl-1-piperazinyl)imidazo[1,2-a]pyridin-2-yl]methyl}-2,3,4,4a,5,6,7,11b-octahydro-1H-pyrido[3′,2′:6,7]cyclohepta[1,2-b]pyridine]
IC50: < 100 nM

OCCN1CCN(c2cccc3nc(CN4CCC[C@H]5CCc6cccnc6[C@H]54)cn23)CC1 [Example 103, 2-(4-{2-[(4aR,10bS)-3,4,4a,5,6,10b-hexahydro-1,10-phenanthrolin-1(2H)-ylmethyl]imidazo[1,2-a]pyridin-5-yl}-1-piperazinyl)ethanol]
IC50: < 100 nM

CN1CCN(c2cccc3nc(CN4CCC[C@H]5CCc6cccnc6[C@H]54)c(CO)n23)CC1 [Example 54, [2-[(4aR,10bS)-3,4,4a,5,6,10b-hexahydro-1,10-phenanthrolin-1(2H)-ylmethyl]-5-(4-methyl-1-piperazinyl)imidazo[1,2-a]pyridin-3-yl]methanol]
IC50: < 100 nM

c1cnc2c(c1)CC[C@@H]1CCCN(Cc3cn4c(N5CCOCC5)cccc4n3)[C@H]21 (racemic) [Example 52, (cis) 1-{[5-(4-morpholinyl)imidazo[1,2-a]pyridin-2-yl]methyl}-1,2,3,4,4a,5,6,10b-octahydro-1,10-phenanthroline]
IC50: 500 to 10000 nM

c1cnc2c(c1)CC[C@@H]1CCCN(Cc3cn4c(N5CCCNCC5)cccc4n3)[C@H]21 [Example 87, (4aR,10bS)-1-{[5-(hexahydro-1H-1,4-diazepin-1-yl)imidazo[1,2-a]pyridin-2-yl]methyl}-1,2,3,4,4a,5,6,10b-octahydro-1,10-phenanthroline]
IC50: < 100 nM

CN(C)[C@H]1CCN(c2cccc3nc(CN4CCC[C@H]5CCc6cccnc6[C@H]54)cn23)C1 [Example 100, (3S)-1-{2-[(4aR,10bS)-3,4,4a,5,6,10b-hexahydro-1,10-phenanthrolin-1(2H)-ylmethyl]imidazo[1,2-a]pyridin-5-yl}-N,N-dimethyl-3-pyrrolidinamine]
IC50: < 100 nM

c1cnc2c(c1)CC[C@@H]1CCCN(Cc3c[nH]cn3)[C@H]21 [Example 50, (4aR,10bS)-1-(1H-imidazol-4-ylmethyl)-1,2,3,4,4a,5,6,10b-octahydro-1,10-phenanthroline]
IC50: 500 to 10000 nM

NCCCCCn1c(CN2CCC[C@@H]3CCc4cccnc4[C@H]32)nc2ccccc21 (relative stereo) [Example 35, (trans)-5-[2-(3,4,4a,5,6,10b-hexahydro-1,10-phenanthrolin-1(2H)-ylmethyl)-1H-benzimidazol-1-yl]-1-pentanamine]
IC50: 100 to 500 nM

CC(C)N1CCN(c2cccc3nc(CN4CCC[C@H]5CCc6cccnc6[C@H]54)cn23)CC1 [Example 82, (4aR,10bS)-1-({5-[4-(1-methylethyl)-1-piperazinyl]imidazo[1,2-a]pyridin-2-yl}methyl)-1,2,3,4,4a,5,6,10b-octahydro-1,10-phenanthroline]
IC50: < 100 nM

CN(C)CCCn1c(CN2CCC[C@@H]3CCc4cccnc4[C@H]32)nc2ccccc21 (relative stereo) [Example 40, (trans) 3-[2-(3,4,4a,5,6,10b-hexahydro-1,10-phenanthrolin-1(2H)-ylmethyl)-1H-benzimidazol-1-yl]-N,N-dimethyl-1-propanamine]
IC50: 100 to 500 nM

COCCN1CCN(c2cccc3nc(CN4CCC[C@H]5CCc6cccnc6[C@H]54)cn23)CC1 [Example 99, (4aR,10bS)-1-[(5-{4-[2-(methyloxy)ethyl]-1-piperazinyl}imidazo[1,2-a]pyridin-2-yl)methyl]-1,2,3,4,4a,5,6,10b-octahydro-1,10-phenanthroline]
IC50: < 100 nM

CC(C)N1CCC[C@H](Cn2c(CN3CCC[C@H]4CCc5cccnc5[C@H]43)nc3ccccc32)C1 [Example 65, (4aR,10bS)-1-[(1-{[(3S)-1-(1-methylethyl)-3-piperidinyl]methyl}-1H-benzimidazol-2-yl)methyl]-1,2,3,4,4a,5,6,10b-octahydro-1,10-phenanthroline]
IC50: < 100 nM

OCCN1CCCN(c2cccc3nc(CN4CCC[C@H]5CCc6cccnc6[C@H]54)cn23)CC1 [Example 108, 2-(4-{2-[(4aR,10bS)-3,4,4a,5,6,10b-hexahydro-1,10-phenanthrolin-1(2H)-ylmethyl]imidazo[1,2-a]pyridin-5-yl}hexahydro-1H-1,4-diazepin-1-yl)ethanol]
IC50: < 100 nM

c1cnc2c(c1)CC[C@@H]1CCCN(Cc3cn4c(N[C@H]5CCCNC5)cccc4n3)[C@H]21 [Example 112, 2-[(4aR,10bS)-3,4,4a,5,6,10b-hexahydro-1,10-phenanthrolin-1(2H)-ylmethyl]-N-[(3S)-3-piperidinyl]imidazo[1,2-a]pyridin-5-amine]
IC50: < 100 nM
